According to BindingDB's records for doi:10.3109/14756360903027816 (The University of Montana, 2010):

Target: T1, Acetylcholinesterase (Mus musculus, UniProt P21836)
T1 sequence (P21836 whole entry): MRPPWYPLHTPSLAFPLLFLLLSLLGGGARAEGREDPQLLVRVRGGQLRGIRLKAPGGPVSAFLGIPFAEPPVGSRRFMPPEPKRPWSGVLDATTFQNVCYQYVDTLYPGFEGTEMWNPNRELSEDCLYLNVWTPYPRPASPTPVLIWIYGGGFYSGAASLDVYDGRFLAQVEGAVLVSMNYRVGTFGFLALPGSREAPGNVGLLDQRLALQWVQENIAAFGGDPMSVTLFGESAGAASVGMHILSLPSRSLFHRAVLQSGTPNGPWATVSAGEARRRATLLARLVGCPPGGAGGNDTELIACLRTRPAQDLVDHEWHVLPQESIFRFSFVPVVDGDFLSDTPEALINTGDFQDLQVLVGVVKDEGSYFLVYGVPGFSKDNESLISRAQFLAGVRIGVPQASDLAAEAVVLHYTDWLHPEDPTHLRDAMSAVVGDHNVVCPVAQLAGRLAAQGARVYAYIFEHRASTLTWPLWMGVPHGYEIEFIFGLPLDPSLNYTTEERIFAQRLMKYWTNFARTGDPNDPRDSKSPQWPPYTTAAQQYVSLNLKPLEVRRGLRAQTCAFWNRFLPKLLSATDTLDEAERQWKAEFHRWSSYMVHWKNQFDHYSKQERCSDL
Test: AChE Assay
Conditions: pH 7.6; 20 °C
Procedure: The inactivation of AChEs was determined using a colorimetric assay [Ellman et al., Biochem. Pharmacol., 7:88-95]. […] DTNB solution and a solution of AChE yielding a 0.1 Abs unit/min rate in PBS (2.80 mL; pH 7.6) were placed in a cuvette at 20°C. To this solution was added either: (a) 10 μL of ACN as the control, or (b) 10 μL of ligand solution (10 mM in ACN). […] The final concentrations of the reactants during enzyme assay were: 0.33 mM DTNB, 0.59 mM ATCh-I, 0.58 mM NaHCO3, and 0.05 mM inhibitor.

Q: For `C#CCNS(=O)(=O)c1ccc(-c2c3ccc(=[N+](CC)CC)cc-3oc3cc(N(CC)CC)ccc23)c(S(=O)(=O)[O-])c1` [Lissamine propargyl sulfonamide (6)], which IC50 is on record?
A: 50 nM

Q: Which IC50 does the source give for `C#CCNS(=O)(=O)c1ccc(C2=c3cc4c5c(c3Oc3c2cc2c6c3CCCN6CCC2)CCC[N+]=5CCC4)c(S(=O)(=O)[O-])c1` [Texas Red propargyl sulfonamide (7)] here?
A: 700 nM
